Assay results as given in patent publication US20100016225A1, “CONJUGATES COMPRISED OF POLYMER AND HIV gp-41-DERIVED PEPTIDES AND THEIR USE IN THERAPY” (Trimeris, Inc., priority 2002, published 2010).

What was measured:
Format in all cases: cell-based
HIV-1 T20R = details: HIV-1 T20R, Table 5
Excerpt: The infectivity assays score for reduction of infectious virus titer employing the indicator cell lines MAGI or the CCR5 expressing derivative cMAGI. Both cell lines exploit the ability of HIV-1 that to transactivate the expression of a β-galactosidase reporter gene driven by the HIV-LTR. The β-gal reporter has been modified to localize in the nucleus and can be detected with the X-gal substrate as intense nuclear staining within a few days of infection. The number of stained nuclei can thus be interpreted as equal to the number of infectious virions in the challenge inoculum if there is only one round of infection prior to staining. […] The peptide (in the respective dilution) was added to the CMAGI or MAGI cells, followed by the virus inocula; and 24 hours later, an inhibitor of infection and cell-cell fusion (e.g., T20) was added to prevent secondary rounds of HIV infection and cell-cell virus spread. The cells were cultured for 2 more days, and then fixed and stained with the X-gal substrate to detect HIV-infected cells. The number of infected cells for each control and peptide dilution was determined with the CCD-imager, and then the IC50 and IC90 were calculated (expressed in μg/ml).
In this first example of antiviral potency, two clinical isolates of HIV were obtained from the same HIV-infected individual.
Using the methods taught in Example 1 herein, additional conjugates were produced by varying the polymer, the terminus of the synthetic peptide which is operably bound to polymer, and the reactive functionality used for operably binding synthetic peptide to polymer. Two molecules of synthetic peptide (e.g. SEQ ID NO:4) were operably bound to polymer.

HIV-1 strain IIIB = assay: In vitro infectivity assay, HIV-1 strain IIIB (Table 5)
Excerpt: (§1) Illustrated in this example is the unexpected result of antiviral potency using the conjugates according to the present invention. […] In determining antiviral activity (e.g., one measure being the ability to inhibit transmission of HIV to a target cell) of the conjugates according to the present invention, used was an in vitro assay which has been shown, by data generated using synthetic peptides derived from either of the HR regions of HIV gp41, to be predictive of antiviral activity observed in vivo.
(§2) The infectivity assays score for reduction of infectious virus titer employing the indicator cell lines MAGI or the CCR5 expressing derivative cMAGI. Both cell lines exploit the ability of HIV-1 that to transactivate the expression of a β-galactosidase reporter gene driven by the HIV-LTR. The β-gal reporter has been modified to localize in the nucleus and can be detected with the X-gal substrate as intense nuclear staining within a few days of infection. The number of stained nuclei can thus be interpreted as equal to the number of infectious virions in the challenge inoculum if there is only one round of infection prior to staining. Infected cells are enumerated using a CCD-imager and both primary and laboratory adapted isolates show a linear relationship between virus input and the number of infected cells visualized by the imager. […] Peptides tested for antiviral activity were diluted into various concentrations, and tested in duplicate or triplicate against an HIV inoculum adjusted to yield approximately 1500-2000 infected cells/well of a 48 well microtiter plate. The peptide (in the respective dilution) was added to the CMAGI or MAGI cells, followed by the virus inocula; and 24 hours later, an inhibitor of infection and cell-cell fusion (e.g., T20) was added to prevent secondary rounds of HIV infection and cell-cell virus spread. The cells were cultured for 2 more days, and then fixed and stained with the X-gal substrate to detect HIV-infected cells. The number of infected cells for each control and peptide dilution was determined with the CCD-imager, and then the IC50 and IC90 were calculated (expressed in μg/ml).
(§3) Using the methods taught in Example 1 herein, additional conjugates were produced by varying the polymer, the terminus of the synthetic peptide which is operably bound to polymer, and the reactive functionality used for operably binding synthetic peptide to polymer. Two molecules of synthetic peptide (e.g. SEQ ID NO:4) were operably bound to polymer. Such conjugates were then tested for antiviral activity against HIV isolates IIIB, and HIV-1 T20S & HIV-1 T20R (see Table 2 for HIV resistant strains), with the antiviral activity (IC50) expressed in μg/ml. The results for the various conjugates (Table 5, A-Q), terminus of synthetic peptide used for operably binding polymer (Table 5, C-terminus denoted as “C”, N-terminus denoted as “N”) or if an internal lysine was used (Table 5, “Lys 18”, signifying lysine as amino acid residue 18 in the amino acid sequence of the synthetic peptide), antiviral activity (IC50) against HIV-1 strain IIIB (Table 5, “IIIB”), antiviral activity (IC50) against HIV-1 T20S (Table 5, “T20S”) and antiviral activity (IC50) against HIV-1 T20R (Table 5, “T20R”), are illustrated in Table 5.

HIV-1 T20S = details: HIV-1 T20S, Table 5
Excerpt: as §1, §2
In this first example of antiviral potency, two clinical isolates of HIV were obtained from the same HIV-infected individual. A first isolate, hereby designated “HIV-1 T20S” for ease of description, was sensitive to the antiviral effect of T20 (SEQ ID NO:4) both in vitro and in vivo. […] The results, with the IC50 expressed in ng/ml, are illustrated in Table 2.
as §3

Conjugate A: two molecules of SEQ ID NO:4 bound via N-terminus to PEG 6
T20R (antiviral activity, IC50) (HIV-1 T20R): .050 µg/mL
IIIB (antiviral activity, IC50) (HIV-1 strain IIIB): .037 µg/mL
T20S (antiviral activity, IC50) (HIV-1 T20S): .029 µg/mL

Conjugate B: two molecules of SEQ ID NO:4 bound via C-terminus to PEG 6
T20R (antiviral activity, IC50) (HIV-1 T20R): .070 µg/mL
IIIB (antiviral activity, IC50) (HIV-1 strain IIIB): .117 µg/mL
T20S (antiviral activity, IC50) (HIV-1 T20S): .053 µg/mL

Conjugate C: two molecules of SEQ ID NO:4 bound via C-terminus to PEG 6
T20R (antiviral activity, IC50) (HIV-1 T20R): .050 µg/mL
IIIB (antiviral activity, IC50) (HIV-1 strain IIIB): .065 µg/mL
T20S (antiviral activity, IC50) (HIV-1 T20S): .046 µg/mL

Conjugate D: two molecules of SEQ ID NO:4 bound via N-terminus to alkyl C5
T20R (antiviral activity, IC50) (HIV-1 T20R): .049 µg/mL
IIIB (antiviral activity, IC50) (HIV-1 strain IIIB): .039 µg/mL
T20S (antiviral activity, IC50) (HIV-1 T20S): .036 µg/mL

Conjugate E: two molecules of SEQ ID NO:4 bound via N-terminus to PEG 8
T20R (antiviral activity, IC50) (HIV-1 T20R): .020 µg/mL
IIIB (antiviral activity, IC50) (HIV-1 strain IIIB): .018 µg/mL
T20S (antiviral activity, IC50) (HIV-1 T20S): .026 µg/mL

Conjugate F: two molecules of SEQ ID NO:4 bound via N-terminus to alkyl C8
T20R (antiviral activity, IC50) (HIV-1 T20R): .087 µg/mL
IIIB (antiviral activity, IC50) (HIV-1 strain IIIB): .089 µg/mL
T20S (antiviral activity, IC50) (HIV-1 T20S): .049 µg/mL

Conjugate G: two molecules of SEQ ID NO:4 bound via N-terminus to alkyl C11
T20R (antiviral activity, IC50) (HIV-1 T20R): .218 µg/mL
IIIB (antiviral activity, IC50) (HIV-1 strain IIIB): .174 µg/mL
T20S (antiviral activity, IC50) (HIV-1 T20S): .176 µg/mL

Conjugate H: SEQ ID NO:4 bound via N-terminus to AT, a triacid (e.g., trisuccinimidylamino triacetate)
T20R (antiviral activity, IC50) (HIV-1 T20R): .124 µg/mL
IIIB (antiviral activity, IC50) (HIV-1 strain IIIB): .046 µg/mL
T20S (antiviral activity, IC50) (HIV-1 T20S): .047 µg/mL

Conjugate I: two molecules of SEQ ID NO:4 bound via N-terminus to PEG 4-6-4
T20R (antiviral activity, IC50) (HIV-1 T20R): .029 µg/mL
IIIB (antiviral activity, IC50) (HIV-1 strain IIIB): .029 µg/mL
T20S (antiviral activity, IC50) (HIV-1 T20S): .012 µg/mL

Conjugate J: two molecules of SEQ ID NO:4 bound via N-terminus to PEG 3
T20R (antiviral activity, IC50) (HIV-1 T20R): .049 µg/mL
IIIB (antiviral activity, IC50) (HIV-1 strain IIIB): .036 µg/mL
T20S (antiviral activity, IC50) (HIV-1 T20S): .028 µg/mL

Conjugate K: two molecules of SEQ ID NO:4 bound via N-terminus to PEG 4
T20R (antiviral activity, IC50) (HIV-1 T20R): .067 µg/mL
IIIB (antiviral activity, IC50) (HIV-1 strain IIIB): .033 µg/mL
T20S (antiviral activity, IC50) (HIV-1 T20S): .026 µg/mL

Conjugate L: two molecules of SEQ ID NO:4 bound via C-terminus to GLY-PEG 3 (glycine linker)
T20S (antiviral activity, IC50) (HIV-1 T20S): .061 µg/mL

Conjugate M: two molecules of SEQ ID NO:4 bound via C-terminus to GLY-C2 (glycine linker)
T20S (antiviral activity, IC50) (HIV-1 T20S): .085 µg/mL

Conjugate N: two molecules of SEQ ID NO:4 bound via N-terminus to PEG 10
T20R (antiviral activity, IC50) (HIV-1 T20R): .023 µg/mL
IIIB (antiviral activity, IC50) (HIV-1 strain IIIB): .039 µg/mL
T20S (antiviral activity, IC50) (HIV-1 T20S): .017 µg/mL

Conjugate O: two molecules of SEQ ID NO:4 bound via C-terminus to GLY-C6 (glycine linker)
T20S (antiviral activity, IC50) (HIV-1 T20S): .083 µg/mL

Conjugate P: two molecules of SEQ ID NO:4 bound via C-terminus to GLY-PEG 6 (glycine linker)
T20S (antiviral activity, IC50) (HIV-1 T20S): .031 µg/mL

Conjugate Q: two molecules of SEQ ID NO:4 bound via internal lysine (Lys18) to PEG 6
T20R (antiviral activity, IC50) (HIV-1 T20R): .120 µg/mL
IIIB (antiviral activity, IC50) (HIV-1 strain IIIB): .057 µg/mL
T20S (antiviral activity, IC50) (HIV-1 T20S): .055 µg/mL
